Consider 13 compounds from patent US20090062255A1, “TUMOR-TARGETING EVALUATION METHODOLOGY AND COMPOUNDS RELATED THERETO” (THALLION PHARMACEUTICALS INC., priority 2007, published 2009).

One data set addresses T1, Cyclooxygenase-2 (COX-2) (Homo sapiens, UniProt P35354).
T1 construct: host or cells: insect Sf21 cells
T1 sequence (P35354 18-604): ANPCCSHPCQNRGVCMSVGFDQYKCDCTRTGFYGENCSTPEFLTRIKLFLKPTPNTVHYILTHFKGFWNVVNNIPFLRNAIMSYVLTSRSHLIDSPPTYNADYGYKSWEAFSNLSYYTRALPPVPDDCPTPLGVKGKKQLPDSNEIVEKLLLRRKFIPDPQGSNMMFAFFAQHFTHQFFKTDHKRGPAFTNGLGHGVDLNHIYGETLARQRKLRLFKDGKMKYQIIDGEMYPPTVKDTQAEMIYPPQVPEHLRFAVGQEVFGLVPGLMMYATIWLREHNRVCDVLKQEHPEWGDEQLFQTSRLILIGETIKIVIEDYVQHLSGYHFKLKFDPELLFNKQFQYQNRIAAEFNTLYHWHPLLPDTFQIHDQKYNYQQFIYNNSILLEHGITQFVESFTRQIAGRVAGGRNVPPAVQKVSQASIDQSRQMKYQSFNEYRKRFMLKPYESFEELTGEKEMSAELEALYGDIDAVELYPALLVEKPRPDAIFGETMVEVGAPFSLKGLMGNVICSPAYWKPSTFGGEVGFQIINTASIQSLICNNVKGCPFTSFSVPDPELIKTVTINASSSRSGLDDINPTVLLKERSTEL
Put plainly: COX-2 enzyme assay. The class given is biochemical. As to conditions: 4 μM compound, 1% DMSO; read-out: Percentage of inhibition or binding activity, COX-2 (4 μM). From the text:
Cyclooxygenase-2 (COX-2) enzyme is made only in response to injury or infection. It produces prostaglandins involved in inflammation and the immune response. Elevated levels of COX-2 in the body have been linked to cancer.
The procedures used were based on known assays: ACAT (from rat; Ref: Largis et al (1989), J. Lipid. Res., vol 30, 681-689), COX-2 (human; Ref: Riendeau et al (1997), Can. J. Physiol. Pharmacol., vol 75, 1088-1095 and Warner et al (1999), Pro. Natl. Acad. Sci. USA, vol 96, 7563-7568), 5-LO (human; Ref: Carter et al (1991), J. Pharmacol. Exp. Ther., vol 256, no 3, 929-937, and Safayhi et al (2000), Planta Medica, vol 66, 110-113), PBR (from rat; Le Fur et al (1983), Life Sci. USA, vol 33, 449-457), CysLT1 (human; Martin et al (2001), Biochem. Pharmacol., vol 62, no 9, 1193-1200) and CBR (from rat; Damm et al (1978), Res. Comm. Chem. Pathol. Pharmacol., vol 22, 597-600 and Speth et al (1979), Life Sci., vol 24, 351-357).
Binding assays were done for each of Compounds 1-12 and 46 using ACAT, COX-2, 5-LO, PBR and CysLT1 enzymes. The procedures used are based on the respective references mentioned above and the conditions are summarized in Tables 16 (enzyme assays) and 17 (radioligand receptor assays).
(§1) Binding Assays were done at constant concentration of the compound, in 1% DMSO as vehicle, and are specified below each enzyme/receptor type in Table 18. The results are expressed in Table 18 as percentage inhibition. Significance was obtained when a result was ≧50% binding or inhibition (underlined).

The next data set addresses T2, human 5-LO (Homo sapiens, UniProt P09917).
T2 construct: Human peripheral blood […] (PMNs) were isolated through a Ficoll-Paque density gradient; endogenous in cells; host or cells: human peripheral blood mononuclear cells (PBML/PMNs)
T2 sequence (P09917 1-674): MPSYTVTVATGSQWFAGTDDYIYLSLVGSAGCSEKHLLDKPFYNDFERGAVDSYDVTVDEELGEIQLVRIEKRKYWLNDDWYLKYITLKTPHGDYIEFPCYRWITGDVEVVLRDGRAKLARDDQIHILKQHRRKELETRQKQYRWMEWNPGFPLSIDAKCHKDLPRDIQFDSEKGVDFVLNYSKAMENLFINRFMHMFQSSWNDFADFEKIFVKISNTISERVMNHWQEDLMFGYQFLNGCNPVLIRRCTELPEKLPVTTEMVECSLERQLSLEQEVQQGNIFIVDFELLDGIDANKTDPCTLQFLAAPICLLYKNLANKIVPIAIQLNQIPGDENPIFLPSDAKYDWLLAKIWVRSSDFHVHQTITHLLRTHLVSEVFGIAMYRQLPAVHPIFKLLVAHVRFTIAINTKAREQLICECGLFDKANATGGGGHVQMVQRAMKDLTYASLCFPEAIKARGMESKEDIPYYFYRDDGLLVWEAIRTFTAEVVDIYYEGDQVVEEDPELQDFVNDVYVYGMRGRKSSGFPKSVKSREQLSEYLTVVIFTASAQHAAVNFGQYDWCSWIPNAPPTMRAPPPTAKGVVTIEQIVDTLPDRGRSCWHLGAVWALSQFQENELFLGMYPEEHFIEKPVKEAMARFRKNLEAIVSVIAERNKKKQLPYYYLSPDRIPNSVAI
Put plainly: 5-LO inhibition assay (EIA quantitation of LTB4). It counts as biochemical. As to conditions: 4 μM compound, 1% DMSO; read-out: Percentage of inhibition or binding activity, 5-LO (4 μM). The protocol:
5-Lipoxygenase (5-LO) catalyzes the oxidative metabolism of arachidonic acid to 5-hydroxyeicosatetraenoic acid (5-HETE), the initial reaction leading to formation of leukotrienes.
Human peripheral blood […] (PMNs) were isolated through a Ficoll-Paque density gradient. PMNs were stimulated by addition A23187 (30 μM final concentration). […] Following incubation, samples were neutralized with NaOH and centrifuged. Leukotriene B4 content was measured in the supernatant using an Enzyme Immunosorbant Assay (EIA) assay. The experiment was performed in triplicate.
The procedures used are based on the respective references mentioned above and the conditions are summarized in Tables 16 (enzyme assays) and 17 (radioligand receptor assays).
as §1

The subject of a further data set is SRBC. The data set can be described thus: Hemolysis of SRBC. It counts as cell-based. As to conditions: concentration necessary to achieve 50% hemolysis of SRBC.
In data set [1] the test system is HT-29 (colorectal carcinoma). Put plainly: In vitro cytotoxic activity (GI50, propidium iodide), HT-29. As to conditions: for GI50: Homo sapiens, HT-29, 96 h, method (1), 96 hours. It counts as cell-based. As for the experimental part: (§2) Procedures used for each series of tests are described below.
(§3) Compounds were dissolved at 10 mM in DMSO. […] The following day, propidium iodide was added to one of the two plates and fluorescence measured (Tz). […] Each compound was tested at each concentration and in triplicates. The equivalent cell number was determined after adding propidium iodide by measuring the signal by fluorescence (C for control).

The subject of the next data set is SF268 (CNS). Put plainly: In vitro cytotoxic activity (GI50, propidium iodide), SF-268. It counts as cell-based. As to conditions: Homo sapiens, SF-268, 96 h, method (1), 96 hours. The protocol:
as §2, §3

Data set [2] deals with PC-3 (prostate adenocarcinoma). The data set can be described thus: In vitro cytotoxic activity (GI50, propidium iodide), PC-3. It counts as cell-based, human. As to conditions: Homo sapiens, 96 h, method (1). As for the experimental part:
as §2, §3

Broadly, the inhibition is the change of the read-out against control, counted positive when it falls. With `CC(C)=CCC/C(C)=C/CC/C(C)=C/CN1C(=O)c2cccc(O)c2Nc2c(O)cc(O)cc21` [Compound 1, 10-farnesyl-4,6,8-trihydroxy-5,10-dihydrodibenzo[b,e][1,4]diazepin-11-one], the inhibition at 4 µM at Cyclooxygenase-2 (COX-2) turned out to be 96%; at human 5-LO it was 99%. In addition, the “Hemolysis (ED50 μg/mL)” value in the data set on SRBC is 7.6 µg/mL.

Consider `CC(C)=CCC/C(C)=C/CC/C(C)=C/CN1C(=O)c2cccc(O)c2N(C)c2c(O)cc(O)cc21` [Compound 2, 10-farnesyl-4,6,8-trihydroxy-5-methyl-5,10-dihydro-dibenzo[b,e][1,4]diazepin-11-one], for which the inhibition at 4 µM amounted to 92% on Cyclooxygenase-2 (COX-2) and 93% on human 5-LO. Further, the “increase of cytotoxic activity compared to parent Compound 1” value in data set [1] (HT-29 cell line) was “fifty fold increase”. In the data set with SRBC, the “Hemolysis (ED50 μg/mL)” value amounted to 5.12 µg/mL.

On to `CC(C)=CCC/C(C)=C/CC/C(C)=C/CN1C(=O)c2cccc(O)c2N(Cc2ccccc2)c2c(O)cc(O)cc21` [Compound 3, 5-benzyl-10-farnesyl-4,6,8-trihydroxy-5,10-dihydro-dibenzo[b,e][1,4]diazepin-11-one], for which the inhibition at 4 µM was 76% on Cyclooxygenase-2 (COX-2) and 72% at human 5-LO. Also, in the data set with SRBC, the “Hemolysis (ED50 μg/mL)” value was over 64 µg/mL.

Regarding `COc1cccc2c1Nc1c(O)cc(O)cc1N(C/C=C(\C)CC/C=C(\C)CCC=C(C)C)C2=O` [Compound 4, 10-farnesyl-6,8-dihydroxy-4-methoxy-5,10-dihydro-dibenzo[b,e][1,4]diazepin-11-one], the inhibition at 4 µM on Cyclooxygenase-2 (COX-2) was found to be 78%; at human 5-LO it was 98%. The “Hemolysis (ED50 μg/mL)” value in the data set with SRBC was over 64 µg/mL.

Consider `COc1cc(O)cc2c1Nc1c(O)cccc1C(=O)N2C/C=C(\C)CC/C=C(\C)CCC=C(C)C` [Compound 5, 10-farnesyl-4,8-dihydroxy-6-methoxy-5,10-dihydro-dibenzo[b,e][1,4]diazepin-11-one], for which the inhibition at 4 µM is 63% on Cyclooxygenase-2 (COX-2) and 98% on human 5-LO. The “Hemolysis (ED50 μg/mL)” value with SRBC was over 64 µg/mL.

Consider `COc1cc(OC)c2c(c1)N(C/C=C(\C)CC/C=C(\C)CCC=C(C)C)C(=O)c1cccc(O)c1N2` [Compound 6, 10-farnesyl-4-hydroxy-6,8-dimethoxy-5,10-dihydro-dibenzo[b,e][1,4]diazepin-11-one], for which the results for the inhibition at 4 µM on Cyclooxygenase-2 (COX-2) and at human 5-LO were 45% and 71%, respectively. Besides, the “Hemolysis (ED50 μg/mL)” value in the data set on SRBC is over 64 µg/mL.

Take `COc1cccc2c1Nc1c(OC)cc(O)cc1N(CC=C(C)CCC=C(C)CCC=C(C)C)C2=O` [Compound 7, 10-farnesyl-8-hydroxy-4,6-dimethoxy-5,10-dihydro-dibenzo[b,e][1,4]diazepin-11-one]: the inhibition at 4 µM at Cyclooxygenase-2 (COX-2) amounted to 26%; on human 5-LO it was 63%. Also, the “Hemolysis (ED50 μg/mL)” value in the data set on SRBC is over 64 µg/mL.

Consider `COc1cc(OC)c2c(c1)N(CC=C(C)CCC=C(C)CCC=C(C)C)C(=O)c1cccc(OC)c1N2` [Compound 8, 10-farnesyl-4,6,8-trimethoxy-5,10-dihydro-dibenzo[b,e][1,4]diazepin-11-one], for which the values for the inhibition at 4 µM at Cyclooxygenase-2 (COX-2) and on human 5-LO were 19% and -13%, respectively.

A word on the GI50: it is the concentration at which growth is held to half of that of the control. A higher GI50 goes with less potent growth inhibition. For `CC(=O)Oc1cc(OC(C)=O)c2c(c1)N(CC=C(C)CCC=C(C)CCC=C(C)C)C(=O)c1cccc(O)c1N2` [Compound 9, 6,8-diacetoxy-10-farnesyl-4-hydroxy-5,10-dihydro-dibenzo[b,e][1,4]diazepin-11-one], the inhibition at 4 µM on Cyclooxygenase-2 (COX-2) turned out to be 44%; at human 5-LO, 96%. The concentration for 50% growth inhibition (GI50) in data set [1] is 12.6 µM; with SF268 (CNS), 1.88 µM; in data set [2] it was 1.44 µM. For the same compound, the “Hemolysis (ED50 μg/mL)” value with SRBC is over 64 µg/mL.

In the case of `CC(=O)Oc1cccc2c1Nc1c(OC(C)=O)cc(O)cc1N(CC=C(C)CCC=C(C)CCC=C(C)C)C2=O` [Compound 10, 4,6-diacetoxy-10-farnesyl-8-hydroxy-5,10-dihydro-dibenzo[b,e][1,4]diazepin-11-one], the inhibition at 4 µM at Cyclooxygenase-2 (COX-2) stood at 45%; at human 5-LO, 97%. Also, the concentration for 50% growth inhibition (GI50) in data set [1] was found to be 13 µM; in the data set with SF268 (CNS), 2.02 µM; in data set [2], 1.35 µM. Besides, the “Hemolysis (ED50 μg/mL)” value in the data set on SRBC was over 64 µg/mL.

Turning to `CC(=O)Oc1cc(O)c2c(c1)N(CC=C(C)CCC=C(C)CCC=C(C)C)C(=O)c1cccc(OC(C)=O)c1N2` [Compound 11, 4,8-diacetoxy-10-farnesyl-6-hydroxy-5,10-dihydro-dibenzo[b,e][1,4]diazepin-11-one], the figures for the inhibition at 4 µM at Cyclooxygenase-2 (COX-2) and at human 5-LO were 57% and 97%, respectively. Further, the GI50 in data set [1] came to 16 µM; with SF268 (CNS), 5.79 µM; in data set [2] it was 5.35 µM. Besides, in the data set on SRBC, the “Hemolysis (ED50 μg/mL)” value is 9.8 µg/mL.

Regarding `CC(=O)Oc1cc(OC(C)=O)c2c(c1)N(CC=C(C)CCC=C(C)CCC=C(C)C)C(=O)c1cccc(OC(C)=O)c1N2` [Compound 12, 4,6,8-triacetoxy-10-farnesyl-5,10-dihydro-dibenzo[b,e][1,4]diazepin-11-one], the inhibition at 4 µM turned out to be 30% on Cyclooxygenase-2 (COX-2) and 86% on human 5-LO. Moreover, the “Hemolysis (ED50 μg/mL)” value with SRBC was over 64 µg/mL.

For the compound `CC(C)CCCC(C)CCCC(C)CCN1C(=O)c2cccc(O)c2Nc2c(O)cc(O)cc21` (stereo not shown) [Compound 46, 10-(3,7,11-trimethyldodecyl)-4,6,8-trihydroxy-5,10-dihydro-dibenzo[b,e][1,4]diazepin-11-one], the results for the inhibition at 4 µM on Cyclooxygenase-2 (COX-2) and at human 5-LO were 95% and 65%, respectively. This compound also displayed a GI50 in data set [2] of 0.9 µM. In addition, in the data set with SRBC, the “Hemolysis (ED50 μg/mL)” value came to 13.9 µg/mL.
